Reference: publication PMC9516332 (Frontiers in Oncology, 2022)
Where two headings read alike, the source gives them in different places.

Tests used:
[1] = molecular target: panel of 255 wild-type kinases (Homo sapiens, UniProt Q9HBH9); experiment: Kinase panel profiling at 1 µmol/L (MSA or IMAP), percentage inhibition; type: biochemical; conditions: MNK2; 1 µmol/L single concentration; read-out: %-inhibition, MNK2
[2] = molecular target: panel of 255 wild-type kinases (Homo sapiens, UniProt P45983); experiment: as above; type: biochemical; conditions: kinase JNK1; 1 µmol/L single concentration; read-out: %-inhibition at 1 µmol/L, JNK1
[3] = molecular target: panel of 255 wild-type kinases (Homo sapiens, UniProt P22607); experiment: as above; type: biochemical; conditions: kinase FGFR3; 1 µmol/L single concentration; read-out: %-inhibition at 1 µmol/L, FGFR3
[4] = molecular target: panel of 255 wild-type kinases (Homo sapiens, UniProt P50613); experiment: as above; type: biochemical; conditions: CDK7/CycH/MAT1 kinase assay; 1 µmol/L single concentration; read-out: %-inhibition CDK7/CycH/MAT1
[5] = molecular target: panel of 255 wild-type kinases (Homo sapiens, UniProt Q00526); experiment: as above; type: biochemical; conditions: CDK3/CycE1 kinase assay; 1 µmol/L single concentration; read-out: %-inhibition CDK3/CycE1
[6] = molecular target: panel of 255 wild-type kinases (Homo sapiens, UniProt P49760); experiment: as above; type: biochemical; conditions: kinase CLK2; 1 µmol/L single concentration; read-out: %-inhibition at 1 µmol/L, CLK2
[7] = molecular target: panel of 255 wild-type kinases (Homo sapiens, UniProt Q96RG2); experiment: as above; type: biochemical; conditions: PASK; 1 µmol/L single concentration; read-out: %-inhibition, PASK
[8] = molecular target: panel of 255 wild-type kinases (Homo sapiens, UniProt Q13177); experiment: as above; type: biochemical; conditions: PAK2; 1 µmol/L single concentration; read-out: %-inhibition, PAK2
[9] = molecular target: panel of 255 wild-type kinases (Homo sapiens, UniProt O75582); experiment: as above; type: biochemical; conditions: MSK1; 1 µmol/L single concentration; read-out: %-inhibition, MSK1
AP-1060 (ETV6-NTRK3) = experiment: Cell viability assay; conditions: read-out: IC50 in cell proliferation assay
134 cancer cell lines = experiment: Cell viability assay (ATPlite, 72 hours), IC50 on cancer cell line panel

## CCN1C(=O)N(c2c(F)c(OC)cc(OC)c2F)Cc2cnc3[nH]c(CN4CCOCC4)cc3c21 [pemigatinib]
[1]
  inhibition at 1 µM: -7.4%
[2]
  inhibition at 1 µM: -4.3%
[3]
  inhibition at 1 µM: 100%
[4]
  inhibition at 1 µM: -12%
[5]
  inhibition at 1 µM: 11%
[6]
  inhibition at 1 µM: 6.37%
[7]
  inhibition at 1 µM: -5%
[8]
  inhibition at 1 µM: 6%
[9]
  inhibition at 1 µM: 3.7%
AP-1060 (ETV6-NTRK3)
  IC50: 3420 nM
134 cancer cell lines; HEC-6, read-out: IC50 in cell proliferation assay
  IC50: 2490 nM
134 cancer cell lines; Homo sapiens, 769-P, read-out: IC50 in cell proliferation assay
  IC50: 2530 nM
134 cancer cell lines; Homo sapiens, 786-0, read-out: IC50 in cell proliferation assay
  IC50: 2710 nM
134 cancer cell lines; Homo sapiens, A 172, read-out: IC50 in cell proliferation assay
  IC50: 29 nM
134 cancer cell lines; Homo sapiens, A204, read-out: IC50 in cell proliferation assay
  IC50: 29 nM
134 cancer cell lines; Homo sapiens, A498, read-out: IC50 in cell proliferation assay
  IC50: 1130 nM
134 cancer cell lines; Homo sapiens, A549, read-out: IC50 in cell proliferation assay
  IC50: 4020 nM
134 cancer cell lines; Homo sapiens, A704, read-out: IC50 in cell proliferation assay
  IC50: 1280 nM
134 cancer cell lines; Homo sapiens, A-375, read-out: IC50 in cell proliferation assay
  IC50: 3030 nM
134 cancer cell lines; Homo sapiens, A-427, read-out: IC50 in cell proliferation assay
  IC50: 1.43 nM
134 cancer cell lines; Homo sapiens, ACHN, read-out: IC50 in cell proliferation assay
  IC50: 989 nM
134 cancer cell lines; Homo sapiens, AN3-CA, read-out: IC50 in cell proliferation assay
  IC50: 22 nM
134 cancer cell lines; Homo sapiens, ASPC1, read-out: IC50 in cell proliferation assay
  IC50: 3160 nM
134 cancer cell lines; Homo sapiens, AU565, read-out: IC50 in cell proliferation assay
  IC50: 3260 nM
134 cancer cell lines; Homo sapiens, BT-20, read-out: IC50 in cell proliferation assay
  IC50: 2840 nM
134 cancer cell lines; Homo sapiens, BT-474, read-out: IC50 in cell proliferation assay
  IC50: > 31600 nM
134 cancer cell lines; Homo sapiens, BT-549, read-out: IC50 in cell proliferation assay
  IC50: 17 nM
134 cancer cell lines; Homo sapiens, BXPC-3, read-out: IC50 in cell proliferation assay
  IC50: 1200 nM
134 cancer cell lines; Homo sapiens, C-33-A, read-out: IC50 in cell proliferation assay
  IC50: 2710 nM
134 cancer cell lines; Homo sapiens, CAL-27, read-out: IC50 in cell proliferation assay
  IC50: 2650 nM
134 cancer cell lines; Homo sapiens, CCF-STTG1, read-out: IC50 in cell proliferation assay
  IC50: > 31600 nM
134 cancer cell lines; Homo sapiens, CCRF-CEM, read-out: IC50 in cell proliferation assay
  IC50: 3600 nM
134 cancer cell lines; Homo sapiens, COLO 205, read-out: IC50 in cell proliferation assay
  IC50: 2980 nM
134 cancer cell lines; Homo sapiens, COLO-829, read-out: IC50 in cell proliferation assay
  IC50: 3230 nM
134 cancer cell lines; Homo sapiens, DLD-1, read-out: IC50 in cell proliferation assay
  IC50: 2270 nM
134 cancer cell lines; Homo sapiens, DU-145, read-out: IC50 in cell proliferation assay
  IC50: 1600 nM
134 cancer cell lines; Homo sapiens, DU-4475, read-out: IC50 in cell proliferation assay
  IC50: 5830 nM
134 cancer cell lines; Homo sapiens, Daoy, read-out: IC50 in cell proliferation assay
  IC50: 1400 nM
134 cancer cell lines; Homo sapiens, DoTc2-4510, read-out: IC50 in cell proliferation assay
  IC50: 3190 nM
134 cancer cell lines; Homo sapiens, EOL1, read-out: IC50 in cell proliferation assay
  IC50: 1110 nM
134 cancer cell lines; Homo sapiens, FaDu, read-out: IC50 in cell proliferation assay
  IC50: 2600 nM
134 cancer cell lines; Homo sapiens, G-361, read-out: IC50 in cell proliferation assay
  IC50: 2570 nM
134 cancer cell lines; Homo sapiens, HCC827, read-out: IC50 in cell proliferation assay
  IC50: 3200 nM
134 cancer cell lines; Homo sapiens, HCC4006, read-out: IC50 in cell proliferation assay
  IC50: 2620 nM
134 cancer cell lines; Homo sapiens, HCT-15, read-out: IC50 in cell proliferation assay
  IC50: 2820 nM
134 cancer cell lines; Homo sapiens, HCT-116, read-out: IC50 in cell proliferation assay
  IC50: 2400 nM
134 cancer cell lines; Homo sapiens, HEC-1, read-out: IC50 in cell proliferation assay
  IC50: 2370 nM
134 cancer cell lines; Homo sapiens, HEC-1B, read-out: IC50 in cell proliferation assay
  IC50: 2740 nM
134 cancer cell lines; Homo sapiens, HL-60, read-out: IC50 in cell proliferation assay
  IC50: 2450 nM
134 cancer cell lines; Homo sapiens, HT, read-out: IC50 in cell proliferation assay
  IC50: > 31600 nM
134 cancer cell lines; Homo sapiens, HT-1080, read-out: IC50 in cell proliferation assay
  IC50: 1060 nM
134 cancer cell lines; Homo sapiens, Hs746T, read-out: IC50 in cell proliferation assay
  IC50: 1840 nM
134 cancer cell lines; Homo sapiens, Hs-578T, read-out: IC50 in cell proliferation assay
  IC50: 3780 nM
134 cancer cell lines; Homo sapiens, HuTu80, read-out: IC50 in cell proliferation assay
  IC50: 3.58 nM
134 cancer cell lines; Homo sapiens, J82, read-out: IC50 in cell proliferation assay
  IC50: 1130 nM
134 cancer cell lines; Homo sapiens, Jurkat E6.1, read-out: IC50 in cell proliferation assay
  IC50: 2890 nM
134 cancer cell lines; Homo sapiens, K562, read-out: IC50 in cell proliferation assay
  IC50: 3770 nM
134 cancer cell lines; Homo sapiens, KATO III, read-out: IC50 in cell proliferation assay
  IC50: 1.77 nM
134 cancer cell lines; Homo sapiens, KG-1, read-out: IC50 in cell proliferation assay
  IC50: 1.08 nM
134 cancer cell lines; Homo sapiens, KLE, read-out: IC50 in cell proliferation assay
  IC50: 1820 nM
134 cancer cell lines; Homo sapiens, KMS-11, read-out: IC50 in cell proliferation assay
  IC50: 16 nM
134 cancer cell lines; Homo sapiens, KU812, read-out: IC50 in cell proliferation assay
  IC50: 4660 nM
